Values quoted from earlier work as cited in paper PMC5731893, “Therapeutic potential of an anti-angiogenic multimodal biomimetic peptide in hepatocellular carcinoma” (Oncotarget, 2017).

Legend:
HCC = test system: HCC
From the text: Liver cancer is one of the top causes of cancer related mortality in the world and the incidence has been increasing in the US for decades. Surgical resection and/or liver transplantation are the curative options for early diagnosed hepatocellular cancers. However, the prognosis for advanced stages of the disease is dismal owing to a lack of chemotherapeutic options. A series of anti-angiogenic drugs have been undergoing clinical trials for some time but they have not had much success because of drug related toxicity and partly because many cases of HCC are refractory to different ... || Compared to normal liver cells, HCC tumor cells are often associated with the dysregulation of numerous cellular signaling pathways. Expression changes or mutations of growth factor signaling components, specifically c-Met and insulin-like growth factor 1 receptor (IGF1R) are well documented in the pathogenesis of HCC [10]. Overexpression of c-Met and IGF1R is observed in 20-48% or 33% of HCC tumors, respectively, as are increases in the expression of the IGF1R ligand IGF-II [11]. Downstream effectors of insulin receptor substrates 1 (IRS-1) and 2 (IRS-2) have likewise been r ...

HCC cells = test system: HCC cells
From the text: Liver cancer is one of the top causes of cancer related mortality in the world and the incidence has been increasing in the US for decades. Surgical resection and/or liver transplantation are the curative options for early diagnosed hepatocellular cancers. However, the prognosis for advanced stages of the disease is dismal owing to a lack of chemotherapeutic options. A series of anti-angiogenic drugs have been undergoing clinical trials for some time but they have not had much success because of drug related toxicity and partly because many cases of HCC are refractory to different ...

HCC tumors = test system: HCC tumors
From the text: Angiogenesis is a common feature of many solid tumors and plays a critical role in growth and metastatic progression of HCC. […] Aflibercept speci ... || The dual inhibition of cancer and endothelial cell functions may synergize through the reduction of resistance pathways normally associated with anti-angiogenic therapies. While angiogenesis is important for the exponential growth of cancerous tissue, non-angiogenic processes for tumor vascularization may help bypass the effects of strictly angiogenesis-based therapies. In particular, vessel co-option, or the hijacking of existing vasculature for tumor growth, is observed in models of HCC and has been associated with the diminishing efficacy of extended sorafenib treatment. Tumors from orthoto ...

## CNC(=O)c1cc(Oc2ccc(NC(=O)Nc3ccc(Cl)c(C(F)(F)F)c3)cc2)ccn1 [Sorafenib]
HCC; human, in vivo
  side effects: clinically significant
HCC cells
  effect on sensitivity to apoptotic stimuli: sensitize the cells to apoptotic stimuli
HCC cells; within the S/G2/M phases of the cell cycle
  effect on HCC proliferation: slow HCC proliferation
HCC tumors; orthotopic mouse models of HCC
  vessel co-option vs angiogenic mechanisms after administration: significant preference towards vessel co-option over angiogenic mechanisms

## CNC(=O)c1cc(Oc2ccc(NC(=O)Nc3ccc(Cl)c(C(F)(F)F)c3)c(F)c2)ccn1 [regorafenib]
HCC; advanced HCC that progress under sorafenib, phase III
  increase of median survival: 3 months

## O=C1NC(=O)[C@@H](c2cn3c4c(cccc24)CCC3)[C@@H]1c1c[nH]c2ccccc12 [tivantinib]
HCC; phase II, c-Met positive HCC
  effect on overall survival: significantly improve overall survival

## aflibercept: soluble decoy construct containing a fusion of VEGFR1 and VEGFR2 ligand binding domains
HCC tumors; several mouse models of HCC
  effect on tumor growth: inhibit tumor growth
